Here are results for 21 compounds from patent publication EP0595557A1, “New substituted azetidinones as anti-inflammatory and antidegenerative agents” (MERCK & CO. INC., priority 1992, dated 1994).

Structures are written as SMILES.

The assay addresses T1, Human Polymorphonuclear Leukocyte Elastase (Homo sapiens, UniProt P08246).
T1 construct: Crude extract of human polymorphonuclear leukocytes (PMN) containing elastase activity; from tissue; host or cells: human polymorphonuclear leukocytes (crude extract)
T1 sequence (P08246 30-267): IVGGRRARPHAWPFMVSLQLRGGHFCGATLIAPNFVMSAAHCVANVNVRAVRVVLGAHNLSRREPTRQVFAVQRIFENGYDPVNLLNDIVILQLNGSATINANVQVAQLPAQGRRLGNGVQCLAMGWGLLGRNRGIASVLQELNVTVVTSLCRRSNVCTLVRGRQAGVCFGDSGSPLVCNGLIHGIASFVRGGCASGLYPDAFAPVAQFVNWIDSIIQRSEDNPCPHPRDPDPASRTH
Description: Enzyme assay for inhibition of human polymorphonuclear leukocyte elastase via hydrolysis of Boc-AAPAN or Boc-AAPVN. To be noted: expressed to the nearest thousand; for kinact/KI: pH 7.5, second order rate constant for inactivation of the enzyme, read-out: Kobs/[I]. Type of assay: biochemical. The protocol:
Enzyme Assays for the Inhibition of Human Polymorphonuclear Leukocyte Elastase Via Hydrolysis of N-t-Boc-alanyl-alanyl-prolylalanine-p-nitroanilide (Boc-AAPAN) or N-t-Boc-alanyl-prolylvaline-p-nitro-anilide (Boc-AAPVN) Reagent:
0.05M TES (N-tris[hydroxymethyl]methyl-2-mino-ethanesulfonic acid) Buffer, pH 7.5.
0.2 mM Boc-AAPAN or Boc-AAPVN.
To prepare substrate, the solid was first dissolved in 10.0 ml DMSO. Buffer at pH 7.5 was then added to a final volume of 100 ml.
Crude extract of human polymorphonuclear leukocytes (PMN) containing elastase activity.
Inhibitors (azetidinones) to be tested dissolved in DMSO just before use.
To 1.0 ml of 0.2 mM Boc-AAPAN in a cuvette, 0.01-0.1 ml of DMSO with or without inhibitor was added. After mixing, a measurement was taken at 410 mµ to detect any spontaneous hydrolysis due to presence of test compound. 0.05 Milliliters of PMN extract was then added and the ΔOD/min at 410 mµ was measured and recorded. Beckman model 35 spectrophotometer was used.
Results were expressed to the nearest thousand ^kobs/I which is the second order rate constant in per mole per second for inactivation of the enzyme.
The elastase activity in the crude PMN extract may vary from one preparation to another. A control of each new batch is run, and the volume added in the assay procedure is adjusted according to activity.

In the case of `CCC[C@@H](NC(=O)N1C(=O)C(CC)(CC)[C@@H]1Oc1ccc(C(=O)OCC(=O)N2CCC[C@H]2C(=O)OCc2ccccc2)cc1)c1ccc(C)cc1` [Compound 8], the kinact/KI worked out at 1.25e+07 M⁻¹ s⁻¹.

For `CCC[C@@H](NC(=O)N1C(=O)C(CC)(CC)[C@@H]1Oc1ccc(C(=O)O[C@@H](C)C(=O)O)cc1)c1ccc(C)cc1` [Compound 11, 1-carboxy-ethyl [S-(R*,S*)]4-((3,3-diethyl-1-(((1-(4-methylphenyl)butyl)amino)carbonyl)-4-oxo-2-azetidinyl)oxy) benzoate], the kinact/KI was determined as 1.13e+06 M⁻¹ s⁻¹.

As for `CCC[C@@H](NC(=O)N1C(=O)C(CC)(CC)[C@@H]1Oc1ccc(C(=O)O[C@@H](C)C(=O)N(CC)CC)cc1)c1ccc(C)cc1` [Compound 12, 2-(diethylamino)-1-methyl-2-oxoethyl[S-(R*,S*)]-4-((3,3-diethyl-1-(((1-(4-methyl-phenyl)butyl)amino)carbonyl)-4-oxo-2-azetidinyl)oxy) benzoate], the kinact/KI stood at 2.82e+06 M⁻¹ s⁻¹. Same read-out and setting: to `CCC[C@@H](NC(=O)N1C(=O)C(CC)(CC)[C@@H]1Oc1ccc(C(=O)OC(C)CN(C)C)cc1)c1ccc(C)cc1` (stereo partly drawn) [Compound 13, 1-Dimethylamino-2-propyl [S-(R*,S*)]-4-[[3,3-diethyl-1-[[[1-(4-methyl-phenyl)butyl]amino]carbonyl]-4-oxo-2-azetidinyl]oxy]benzoate] belongs 2.47e+06 M⁻¹ s⁻¹. On the same count and under the same terms, to `CCC[C@@H](NC(=O)N1C(=O)C(CC)(CC)[C@@H]1Oc1ccc(C(=O)OCCCN(C)C)cc1)c1ccc(C)cc1` [Compound 14, 3-Dimethylamino-1-propyl [S-(R*,S*)]-4-[[3,3-diethyl-1-[[[1-(4-methyl-phenyl)butyl]amino]carbonyl]-4-oxo-2-azetidinyl]oxy]benzoate] belongs 2.86e+06 M⁻¹ s⁻¹; to `CCC[C@@H](NC(=O)N1C(=O)C(CC)(CC)[C@@H]1Oc1ccc(C(=O)OCC[N+](C)(C)[O-])cc1)c1ccc(C)cc1` [Compound 15], 2.16e+06 M⁻¹ s⁻¹. Turning to `CCC[C@@H](NC(=O)N1C(=O)C(CC)(CC)[C@@H]1Oc1ccc(C(=O)OCCN(CC)CC)cc1)c1ccc(C)cc1` [Compound 16, 2-Diethylaminoethyl [S-(R*,S*)]-4-[[3,3-diethyl-1-[[[1-(4-methyl-phenyl)butyl]amino]carbonyl]-4-oxo-2-azetidinyl]oxy]benzoate], the kinact/KI was found to be 2.29e+06 M⁻¹ s⁻¹. The same measure, in the same setting: to `CCC[C@@H](NC(=O)N1C(=O)C(CC)(CC)[C@@H]1Oc1ccc(C(=O)OCCN2CCOCC2)cc1)c1ccc(C)cc1` [Compound 17, 2-(1-[4-morpholino]ethyl) [S-(R*,S*)]-4-[[3,3-diethyl-1-[[[1-(4-methyl-phenyl)butyl]amino]carbonyl]-4-oxo-2-azetidinyl]oxy]benzoate] belongs 4.73e+06 M⁻¹ s⁻¹; to `CCC[C@@H](NC(=O)N1C(=O)C(CC)(CC)[C@@H]1Oc1ccc(C(=O)OCCCCN(C)C)cc1)c1ccc(C)cc1` [Compound 18, 4-dimethylaminobutyl [S-(R*,S*)]-4-[[3,3-diethyl-1-[[[1-(4-methyl-phenyl)butyl]amino]carbonyl]-4-oxo-2-azetidinyl]oxy]benzoate], 1.93e+06 M⁻¹ s⁻¹. Same read-out and setting: to `CCC[C@@H](NC(=O)N1C(=O)C(CC)(CC)[C@@H]1Oc1ccc(C(=O)OCC(=O)N2CCC[C@H]2C(=O)NCc2ccccc2)cc1)c1ccc(C)cc1` [Compound 19, [S-(R*,S*)] 1-(((4-((3,3-diethyl-1-(((1-(4-methylphenyl)butyl)amino)carbonyl-4-oxo-2-azetidinyl)oxy)benzoyl)oxy)acetyl-N-benzyl-L-prolinamide] belongs 4.96e+06 M⁻¹ s⁻¹; to `CCC[C@@H](NC(=O)N1C(=O)C(CC)(CC)[C@@H]1Oc1ccc(C(=O)OCC(C)(C)N(C)C)cc1)c1ccc(C)cc1` [Compound 20, 2-dimethylamino-2-methyl-1-propyl [S-(R*,S*)]-4-[[3,3-diethyl-1-[[[1-(4-methyl-phenyl)butyl]amino]carbonyl]-4-oxo-2-azetidinyl]oxy]benzoate], 1.47e+06 M⁻¹ s⁻¹. Same read-out and setting: to `CCC[C@@H](NC(=O)N1C(=O)C(CC)(CC)[C@@H]1Oc1ccc(C(=O)OCCN(C(C)C)C(C)C)cc1)c1ccc(C)cc1` [Compound 21, 2-(diisopropylamino)ethyl [S-(R*,S*)]-4-[[3,3-diethyl-1-[[[1-(4-methyl-phenyl)butyl]amino]carbonyl]-4-oxo-2-azetidinyl]oxy]benzoate] belongs 1.67e+06 M⁻¹ s⁻¹; to `CCC[C@@H](NC(=O)N1C(=O)C(CC)(CC)[C@@H]1Oc1ccc(C(=O)OCCN2CCN(C(=O)OCc3ccccc3)CC2)cc1)c1ccc(C)cc1` [Compound 22, Benzyl [S-(R*,S*)]-4-[2-[[4-[[3,3-diethyl-1-[[[1-(4-methylphenyl)butyl]amino]carbonyl]-4-oxo-2-azetidinyl]oxy]benzoyl]oxy]-ethyl]-1-Piperazine-carboxylate], 4.12e+06 M⁻¹ s⁻¹; to `CCCCN(CCCC)CCOC(=O)c1ccc(O[C@@H]2N(C(=O)N[C@H](CCC)c3ccc(C)cc3)C(=O)C2(CC)CC)cc1` [Compound 23, 2-(dibutylamino)ethyl [S-(R*,S*)]-4-[[3,3-diethyl-1-[[[1-(4-methyl-phenyl)butyl]amino]carbonyl]-4-oxo-2-azetidinyl]oxy]benzoate], 992000 M⁻¹ s⁻¹. For `CCC[C@@H](NC(=O)N1C(=O)C(CC)(CC)[C@@H]1Oc1ccc(C(=O)OCCCCCCN(C)C)cc1)c1ccc(C)cc1` [Compound 24, [S-(R*,S*)]-6-(dimethylamino)hexyl-4-[[3,3-diethyl-1-[[[1-(4-methyl-phenyl)butyl]amino]carbonyl]-4-oxo-2-azetidinyl]oxy]-benzoate], the kinact/KI was 1.99e+06 M⁻¹ s⁻¹.

Take `CCC[C@@H](NC(=O)N1C(=O)C(CC)(CC)[C@@H]1Oc1ccc(C(=O)OCCN2CCNCC2)cc1)c1ccc(C)cc1` [Compound 25]: the kinact/KI was found to be 1.71e+06 M⁻¹ s⁻¹. On the same count and under the same terms, to `CCC[C@@H](NC(=O)N1C(=O)C(CC)(CC)[C@@H]1Oc1ccc(C(=O)OCCN2CCN(C)CC2)cc1)c1ccc(C)cc1` [Compound 26, 2-(4-methyl-1-piperazinyl)ethyl[S-(R*,S*)]-4-[[3,3-diethyl-1-[[[1-(4-methyl-phenyl)butyl]amino]carbonyl]-4-oxo-2-azetidinyl]oxy]benzoate] belongs 4.68e+06 M⁻¹ s⁻¹; to `CCC[C@@H](NC(=O)N1C(=O)C(CC)(CC)[C@@H]1Oc1ccc(C(=O)OCCN2CCN(C(C)=O)CC2)cc1)c1ccc(C)cc1` [Compound 27], 3.26e+06 M⁻¹ s⁻¹. Turning to `CCCC(NC(=O)N1C(=O)C(CC)(CC)C1Oc1ccc(C(=O)OCCN(c2ccccc2)c2ccccc2)cc1)c1ccc(C)cc1` (stereo not drawn) [Compound 28, 2-(diphenylamino)ethyl[S-(R*,S*)]-4-[[3,3-diethyl-1-[[[1-(4-methylphenyl)butyl]amino]carbonyl]-4-oxo-2-azetidinyl]oxy]benzoate], the “Kobs/[I]” value (second order rate constant for inactivation of the enzyme, pH 7.5) is 188,000 per mole per second.

As for `C=CCN(CC=C)CCOC(=O)c1ccc(O[C@@H]2N(C(=O)N[C@H](CCC)c3ccc(C)cc3)C(=O)C2(CC)CC)cc1` [Compound 29, 2-(di-2-propenylamino)ethyl [S-(R*,S*)]-4-[[3,3-diethyl-1-[[[1-(4-methylphenyl)butyl]amino]carbonyl]-4-oxo-2-azetidinyl]oxy]benzoate], the kinact/KI is 891000 M⁻¹ s⁻¹. Same read-out and setting: to `CCC[C@@H](NC(=O)N1C(=O)C(CC)(CC)[C@@H]1Oc1ccc(C(=O)OCC(c2ccccc2)N(C)C)cc1)c1ccc(C)cc1` (stereo partly drawn) [Compound 30, 2-(dimethylamino)-2-phenylethyl [S-(R*,S*)]-4-[[3,3-diethyl-1-[[[1-(4-methylphenyl)butyl]amino]carbonyl]-4-oxo-2-azetidinyl]oxy]benzoate] belongs 656000 M⁻¹ s⁻¹.
